From US20230413823A1, “HYPERLOADED YEAST CELL WALL PARTICLE AND USES THEREOF” (priority 2022, published 2023)
≈ marks a conversion by molar mass, not a printed value. Read-outs that look alike come from different tables or passages of the source.

Columns and labels:
[1] = Payload encapsulation (loading) efficiency in YPs by HPLC; assay type: physicochemical
Description: Samples of YP-GET (10 μL, 10 mg YP/mL) were stained with Nile red (2 μL, 0.1 mg/mL) and fluorescein labeled concanavalin-A (FITC ConA, 2 μL, 0.1 mg/mL) to qualitatively assess loading by the fluorescence microscopy of the encapsulated fluorescent terpene-Nile red complex in the FITC ConA labeled yeast particle. Nile red was imaged using a rhodamine (red) filter (maxi-mum excitation/emission wavelengths at 550/570 nm) and FITC-ConA was imaged with a green filter at 490/520 nm. Microscopy images were collected with an Olympus BX60 upright compound fluorescent microscope. YP GET samples (100 mg) were centrifuged to collect excess liquid (free terpene and water) and the pellet fraction was resuspended in 10 mL of 90% methanol-10% water to extract encapsulated terpenes. Terpenes were quantified by HPLC operated with 32 KARAT™ software version 7.0 (Beckman Coulter, Inc, Brea, CA, USA), using a Waters […]® C18 column (3.5 μm, 4.6×150 mm) with acetonitrile:water 50:50 as mobile phase, flow rate at 1 mL/min, injection volume of 10 μL, and terpene detection at 254 nm. […] The quantification of terpenes was done by measuring the peak area and interpolating the concentration using a calibration curve obtained with terpene standards.
Terpenes were mixed with water and YPs from two different manufacturers and incubated at room temperature for 48 hours and encapsulation efficiency of terpenes in YPs was measured as described above after incubation at room temperature for 2 days.
(§1) Dry YPs from two different manufacturers were mixed with water (0.5mL water/g YP) for 30 minutes to obtain a uniform hydrated YP suspension. Limonene was added to the YP sample and incubated at 40° C. for one week to allow for complete limonene loading. Loading efficiency was quantitatively measured by the basic HPLC procedure described above using assay details listed in Table 10 and qualitatively assessed by fluorescence microscopy as described before. Particle diameter was measured as described before.
as §1, with “(0.5 to 2.5 mL” for “(0.5mL”, “Limonene was added to the YP sample and incubated at 40° C. for one week to allow for complete limonene loading.” left out, “12” for “10”, “above.” for “before.”
as §1, with “(2.5 to 5 mL” for “(0.5mL”, “Triallate” for “Limonene”, “3 to 7 days” for “one week”, “complete” for “complete limonene”, “14” for “10”
Dry GLPs/YPs were mixed with water (0.5 to 4.5 mL water g GLP/YP) for 30 minutes to obtain a uniform hydrated YP suspension. THC was added to the GLP/YP sample and incubated at 23° C. for 48 hours to allow for complete THC loading. Loading efficiency was quantitatively measured by the basic HPLC procedure described above using assay details listed in Table 16 and qualitatively assessed by fluorescence microscopy as described above. Particle diameter was measured as described above.
Two different kinds of dry YPs were mixed with water (0.5 to 4.5 mL water/g YP) for 30 minutes to obtain a uniform hydrated YP suspension. λCy was added to the YP sample and incubated at 55° C. for one week to allow for complete λCy loading. Loading efficiency was quantitatively measured by the basic HPLC procedure described above using assay details listed in Table 18 and qualitatively assessed by fluorescence microscopy as described before. Particle diameter was measured as described before.
PTP is highly soluble in acetone and dichloromethane. […]

[2] = Solubility in organic loading and leave-in solvents
[3] = test system: Candida albicans SC5134; experiment: Antimicrobial microplate assay (MIC 75%); assay type: cell-based
Description: The antimicrobial activity of YP-GET was evaluated using a modified published microplate assay procedure (Sultanbawa, Y.; Cusack, A.; Currie, M.; Davis, C. An Innovative Microplate Assay to Facilitate the Detection of Antimicrobial 538Activity in Plant Extracts. J. Rapid Meth. Aut. Mic. 2009, 17 (4), 519-534. haps://doi.org/10.111/j.1745-4581.2009.00187.x). Samples of YP-GET were suspended in 100 μL of growth medium (LB 395was used in antibacterial assays and YPD in antifungal assays) and added to the first row 396 (Row A) of a 96-well plate (all wells in the 96-well plate contain additional 100 μL medium). Serial dilutions (1:1) were performed by transferring 100 μL from Row A to Row B, etc., and finally removing 100 μL from Row H. Diluted Escherichia coli Top10 (Invitrogen, Carlsbad CA), Staphylococcus aureus ATCC 19636 or Candida albicans SC5134 cells (100 μL, […]) were added to all wells of the plate. Initial (t=0) and final (t=16 h, 37° C.) absorbance readings were taken at 650 nm.

[4] = cited from earlier work; for water/octanol partition coefficient (log P): chemical and physical properties tables
[5] = test system: C. albicans; details: cited from earlier work
[6] = test system: S. cerevisiae; details: cited from earlier work
[7] = cited from earlier work
[8] = test system: H. pylori; details: concentration of 2 mg/L; cited from earlier work
[9] = Payload release from YPs upon dilution in water (HPLC of supernatant); assay type: physicochemical
Description: Sustained payload release from YPs occurs by payload diffusion out of the particles and is a function of the payload's solubility in water. […] Samples were incubated at room temperature. Amount of triallate released from the particles into the supernatant was quantified by HPLC as described before.
λCy-YP samples loaded at a w/w λCy:YP ratio of 1:1 were diluted in water ±surfactant (1% w/v IGEPAL) at target λCy concentrations of 0.001, 0.01, 0.1 and 1 mg/mL. Samples were incubated at room temperature for 3 hours. Supernatant was collected to measure amount of λCy released from the particles. The amount of λCy was quantified by HPLC as described above.
PTP-YP samples prepared without leave in solvent or with leave-in solvent GET424 or DMDA. Samples carrying PTP:YP weight ratio 1:1, PTP:GET:YP ratio of 1:1:1 or PTP:DMDA:YP ratio of 1:1:1 were diluted in water at a target PTP concentration of 0.001, 0.01, 0.1 and 1 mg/mL. Samples were incubated at room temperature. Supernatant was collected to measure amount of payload released from the particles.

[10] = physchem; details: organic solvent or mixture
[11] = Table 21, cited from earlier work
[12] = chemical and physical properties tables

Q: Which results are given for `C=C(C)[C@@H]1CCC(C)=C[C@H]1c1c(O)cc(CCCCC)cc1O` [CBD, cannabidiol]?
A: encapsulation efficiency ([1]; 3:1 (CBD+OA):GLP ratio, OA leave-in solvent): high encapsulation efficiency; encapsulation efficiency ([1]; CBD:YP weight ratios up to 5:1, multiple loading cycles, GLPs): high encapsulation efficiency; solubility ([2]; DMSO, organic solvent or mixture): 200000 µg/mL (≈ 636 mM); solubility ([2]; GET424, organic solvent or mixture): 10000 µg/mL (≈ 31.8 mM); CBD Solubility Ethanol ([2]; ethanol): Miscible at 1:1 weight ratio*; CBD Solubility Methanol ([2]; methanol): Miscible at 1:1 weight ratio*; CBD Solubility Octanoic Acid (OA) ([2]; octanoic acid): Miscible at 0.5:1 CBD:OA ratio

Q: With `OC(Cn1cncn1)(Cn1cncn1)c1ccc(F)cc1F` [Fluconazole] as the compound, how does the “fold lower concentration than YP GET to reach MIC 75%” value [3] read?
A: 10 fold

Q: For `CC(C)=CCC/C(C)=C/CO` [Geraniol], which “Log P” value ([4]; water/octanol, Table 2) is on record?
A: 3.56

Q: What about the “growth of C. albicans strains” value [5] of the same compound?
A: inhibit the growth

Q: And the “growth of S. cerevisiae strains” value [6]?
A: inhibit the growth

Q: And the “Maximum solubility in water” value ([7]; Table 1)?
A: 686 µg/mL

Q: What about the “Solubility in Water” value ([7]; Table 2) of the same compound?
A: 686 µg/mL (≈ 4.45 mM)

Q: And the “Maximum solubility in water” value ([7]; terpenes in the GET composition)?
A: 686 µg/mL

Q: And the “in vitro growth of H. pylori” value [8]?
A: inhibited

Q: Which results are given for `CC1(C)C(/C=C(\Cl)C(F)(F)F)[C@H]1C(=O)O[C@H](C#N)c1cccc(Oc2ccccc2)c1` (stereo partly drawn) [Lambda cyhalotrin]?
A: Log P ([4]; Table 1): 7.0; water/octanol partition coefficient (log P) [4]: 7.0; payload encapsulation ([1]; λCy:YP ratios up to 5:1, no solvent): 77-90%; Maximum solubility in water ([7]; Table 1): 0.005 µg/mL; Solubility in Water [7, 12]: 2.8 µg/mL (≈ 0.00622 mM); λCy release from YPs ([9]; dilution to 0.001 mg λCy/mL, λCy:YP 1:1, 3 hours room temperature): over 80%

Q: With `C=C(C)[C@H]1CC=C(C)CC1` [Limonene] as the compound, how does the “loading efficiency” value ([1]; limonene:YP ratio of 3:1, both types of YPs) read?
A: high efficiency

Q: For `CC(C)CC(C)c1sccc1NC(=O)c1cn(C)nc1C(F)(F)F` (stereo not drawn) [PTP, Penthiopyrad], which solubility [10] is on record?
A: 200000 µg/mL (≈ 556 mM)

Q: And the “PTP release from YPs” value ([9]; DMDA leave-in solvent, PTP:DMDA:YP 1:1:1)?
A: improved release at 0.1 and 0.01 mg PTP/mL

Q: What about the “PTP release from YPs” value ([9]; GET424 leave-in solvent, PTP:GET:YP 1:1:1) of the same compound?
A: improved release at 0.01 mg PTP/mL

Q: And the “PTP release from YPs” value ([9]; without a leave-in solvent, PTP:YP 1:1)?
A: released from YPs only at a concentration above maximum solubility in water

Q: For `CCCCCc1cc(O)c2c(c1)OC(C)(C)[C@@H]1CCC(C)=C[C@@H]21` [Tetrahydrocannabinol (THC), Tetrahydrocannabinol, reference compound], which “Log P” value ([4]; Table 1) is on record?
A: 5.9

Q: And the “water/octanol partition coefficient (log P)” value [4]?
A: 5.9

Q: What about the “loading efficiency” value ([1]; THC:YP ratio of up to 5:1) of the same compound?
A: high efficiency

Q: And the “Maximum solubility in water” value ([7]; Table 1)?
A: 2.8 µg/mL

Q: And the “Solubility in Water” value [7, 12]?
A: 2.8 µg/mL (≈ 0.0089 mM)

Q: What does the source list for `CC(C)N(C(=O)SCC(Cl)=C(Cl)Cl)C(C)C` [Triallate]?
A: triallate located inside YPs ([1]; triallate:YP w/w ratios up to 4:1, no solvent): 94 -100%; release of triallate from the YP ([9]; dilution to 0.001 mg/mL, triallate:YP 3:1 and 4:1): ~100%

Q: What does the source list for `OC(Cc1ccccc1Cl)(Cn1nc[nH]c1=S)C1(Cl)CC1` (stereo not drawn) [prothioconazole]?
A: water/octanol partition coefficient (log P) [4]: 4.05; encapsulation efficiency ([1]; PRO:YP ratios up to 3:1, three loading cycles, acetone): more than 83%; Solubility Water ([7]; Table 21): 22.5 µg/mL (≈ 0.0654 mM); Solubility DMSO ([11]; DMSO): 126000 µg/mL (≈ 366 mM); Solubility Acetone ([11]; acetone): 444000 µg/mL (≈ 1290 mM); Solubility Ethyl acetate ([11]; ethyl acetate): 220000 µg/mL (≈ 639 mM)

Q: With Clomazone as the compound, how does the “Log P” value ([4]; Table 1) read?
A: 2.5

Q: What about the “water/octanol partition coefficient (log P)” value [4] of the same compound?
A: 2.5

Q: What about the “clomazone located inside YPs” value ([1]; clomazone:YP w/w ratios up to 5:1, no solvent) of the same compound?
A: 96-100%
